Experimental data as given in patent US20190256827A1, “EPIGENOME EDITING SYSTEMS AND METHODS” (STC.UNM, priority 2017, published 2019).

Key:
Type in all cases: cell-based, human
[1] = tested on: IL1RN mRNA in HEK293T cells; test: qPCR of IL1RN mRNA levels (dCas9-PYL-HA, FLAG-ABI-P300, sgRNAs)
Method: To study how IL1RN expression levels change, total RNAs from the cell lysates generated in the above experiment were purified and then subjected to qPCR analysis to quantify mRNA levels.
Human embryonic kidney cell HEK293T (American Type Culture Collection, Manassas, Va.) was cultured in Dulbecco's modified Eagle's medium (DMEM) (Gibco) with 10% FBS (Atlanta Biologicals), 1× GlutaMax (Gibco, Thermo Fisher Scientific, Inc., Waltham, Mass.), and 1× penicillin/streptomycin (Pen/Strep; Gibco, Thermo Fisher Scientific, Inc., Waltham, Mass.). Cells (100,000/ml) were plated in 24-well or 10-cm cell culture plate the day before transfection. For each well of 24-well plate transfection, 500 ng of dCas9-PYL-HA, 420 ng of FLAG-ABI-P300, and a total amount of 200-ng mix of gRNAs, with a 50-ng per each gRNA, were mixed with 50×(v/w) Opti-MEM (Gibco, Thermo Fisher Scientific, Inc., Waltham, Mass.), then incubate with the same volume of 3 μg PEI-Opti-MEM solution for 20 minutes at room temperature. Then, 100 μL of PEI-combined plasmids were added to every single well of 24-well plate and cultured for 24 hours before experiments were performed. For a 10 cm plate, 1 mL of PEI-combined plasmids were needed. After six hours transfection, cells were washed and incubated for another 1-72 hours before experiments were performed.
Total RNA was extracted using the EZNA Total RNA Kit I (Omega Bio-tek, Inc., Norcross, Ga.). qPCR reactions were performed on cDNA prepared from 1,000 ng of total cellular RNA using the High-Capacity cDNA Reverse Transcription Kit (Applied Biosystems Co., Thermo Fisher Scientific, Inc., Foster City, Calif.). TaqMan qPCR probes (Thermo Fisher Scientific, Inc., Waltham, Mass. IL1RN, Hs00893626; GRM2, Hs00968358; HBA, Hs00361191; MYOD1 Hs02330075; GAPDH, Hs99999905) and Fast Advanced Master Mix (Life Technologies Co., Co., Thermo Fisher Scientific, Inc., Carlsbad, Calif.) were used in multiplexed reactions and 384-well format in a 7900HT Fast Real-Time PCR System (Applied Biosystems Co., Thermo Fisher Scientific, Inc., Foster City, Calif.). All measurements were performed at least in triplicate. Data were analyzed using the SDS software, version 2.4 (Applied Biosystems Co., Thermo Fisher Scientific, Inc., Foster City, Calif.), by the ΔΔCt method: the Ct values of target gene were normalized to Ct values of GAPDH, the folds of target gene expression changes were normalized to experimental controls. Analyzed data are reported as the mean±s.e.m. for biological replicates. In ChIP assays, the Ct values of antibodies pulled down segments were normalized to the Ct values of 10% input.

[2] = tested on: TIR1*/AID dimerization, inducible EGFP reporter in HEK293T cells; test: IAA-inducible EGFP transcriptional activation assay (GAL4DBD-TIR1* or GAL4DBD-TIR1^WT with VP16AD-AID); details: with or without IAA for 24 hours
Description: Based on sequence alignment analysis against Arabidopsis thaliana TIR1, a mutant form of Oryza sativa TIR1 (TIR1*) was engineered. TIR1* contained a double mutation, where glutamic acid residues at position 7 and position 10 were replaced with lysine residues (YFPEKVVKHIFSFL, SEQ ID NO:125) that inhibited the ability of TIR* to interact with the SCF complex. To test if TIR1* indeed no longer mediated IAA-induced degradation, but would still bind to AID in the presence of IAA, an IAA-inducible EGFP transcriptional activation assay was constructed. In this assay, EGFP would only be expressed when a functional transcriptional activator was reconstituted by IAA from the two split halves (a DNA binding domain, DBD, and an activation domain, AD, each linked to an IAA-dimerizable protein, TIR* and AID). DNA constructs were made that encoded fusion proteins of GAL4DBD-TIR1*, GAL4DBD-TIR1^WT (the mutant (TIR*) and the wild type TIR1 (TIR1^WT) fused to DBD from GAL4, respectively) and VP16AD-AID (AID fused to VP16 AD). If the AID fusion protein was degraded or the dimerization of TIR1 and AID was disrupted, no EGFP expression would occur. Either GAL4DBD-TIR1* or GAL4DBD-TIR1^WT was co-transfected with VP16AD-AID and an inducible EGFP reporter construct that contains 5×GALDBD binding sites into HEK293T cells with or without the addition of IAA for 24 hours.

[3] = tested on: GAL4DBD-TIR1*/VP16AD-AID, inducible luciferase reporter in HEK293T cells; test: Inducible luciferase reporter assay, IAA-responsive system (orthogonality and reversibility)
Method: To ensure that IAA and ABA could be used to independently control two histone modification editing events, the orthogonality between these two systems was tested. HEK293T cells were co-transfected with either GAL4DBD-TIR1*/VP16AD-AID (responsive to IAA) or GAL4DBD-ABI/VP16AD-PYL (responsive to ABA), and an inducible luciferase reporter construct. This was followed by treating cells with either IAA or ABA (or DMSO as a control) for 24 hours. […] To test the reversibility of IAA-induced dimerization, in which it was critical to achieve precise temporal control, HEK293T cells were co-transfected with GAL4DBD-TIR1*, VP16AD-AID, and an inducible luciferase expression construct, and then treated cells with 50 μM IAA for 24 hours. Cells were then washed with fresh media without IAA to remove the inducer (or no washing as a control). They were then harvested for luciferase assays after washing.

Compound	IL1RN mRNA expression with caged ABA, no UV light ([1]; 20 μM ABA-DMNB, not irradiated, vs DMSO)	IL1RN mRNA levels after uncaging by UV light ([1]; ABA-DMNB uncaged by exposure to UV light)	expression of EGFP [2]	reversibility of IAA-induced luciferase expression after washing ([3]; 50 μM IAA for 24 hours, then washed with fresh media without IAA)	luciferase expression, IAA-responsive system ([3]; treated with IAA or ABA or DMSO for 24 hours)
COc1cc(COC(=O)/C=C(C)\C=C\[C@@]2(O)C(C)=CC(=O)CC2(C)C)c([N+](=O)[O-])cc1OC [ABA-DMNB]	at levels of negative control (DMSO)	mRNA levels increased			
O=C(O)Cc1c[nH]c2ccccc12 [IAA, indole-3-acetic acid]			Only the combination of the TIR1 mutant TIR* and the IAA addition induced the expression of EGFP	readily reversible	Only the proper combination of inducer with corresponding binding proteins could induce luciferase expression
